Experimental data taken from ChEMBL document CHEMBL1136651, “Structure-based de novo design of non-nucleoside adenosine deaminase inhibitors” (Bioorg Med Chem Lett, 2003).

Assays:
[1] = Pharmacokinetic property (AUC) was determined after po administration of 32 mg/kg in mice; type: ADME, organism-based; set-up: dose 32 mg/kg, route oral; conditions: mouse, in vivo
[2] = Pharmacokinetic property (AUC) was determined after ip administration of 32 mg/kg in mice; type: ADME, organism-based; set-up: dose 32 mg/kg, route intraperitoneal; conditions: mouse, in vivo
[3] = Pharmacokinetic property (C(max)) was determined after ip administration of 32 mg/kg in mice; type: ADME, organism-based; set-up: dose 32 mg/kg, route intraperitoneal; conditions: mouse, in vivo
[4] = Pharmacokinetic property (C(max)) was determined after po administration of 32 mg/kg in mice; type: ADME, organism-based; set-up: dose 32 mg/kg, route oral; conditions: mouse, in vivo
Adenosine deaminase = target: T1, Adenosine deaminase (Homo sapiens, UniProt P00813)
T1 sequence (P00813 whole entry): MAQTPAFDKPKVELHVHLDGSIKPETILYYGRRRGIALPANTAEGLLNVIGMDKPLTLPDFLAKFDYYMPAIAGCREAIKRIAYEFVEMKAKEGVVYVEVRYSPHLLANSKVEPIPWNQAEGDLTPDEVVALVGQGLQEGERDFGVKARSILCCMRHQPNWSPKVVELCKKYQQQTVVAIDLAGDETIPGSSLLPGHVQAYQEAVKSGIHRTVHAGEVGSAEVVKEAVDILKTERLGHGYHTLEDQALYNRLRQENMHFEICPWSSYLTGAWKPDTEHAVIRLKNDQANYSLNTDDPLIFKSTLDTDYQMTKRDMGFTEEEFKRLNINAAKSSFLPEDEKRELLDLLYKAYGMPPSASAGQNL
Description: Inhibition constant against human adenosine deaminase was determined

AUC [1] [ng·h/mL] | AUC [2] [ng·h/mL] | Cmax [3] [ng/mL] | Cmax [4] [ng/mL] | Ki (Adenosine deaminase) [µM] | Structure (SMILES)
29900 | 29600 | 25200 | 15200 | – | NC(=O)c1cn(C(CO)CCc2ccccc2)cn1 (stereo not given) [FR-221647]
– | – | – | – | > 100 | O=C(O)c1cn(C(CO)c2ccccc2)cn1 (stereo not given)
– | – | – | – | > 100 | COC(=O)c1cn(C(CO)c2ccccc2)cn1 (stereo not given)
– | – | – | – | 54 | NC(=O)c1cn(C(CO)c2ccccc2)cn1 (stereo not given)

Second part, the molecule before the results:

Structure (SMILES) | AUC [1] [ng·h/mL] | AUC [2] [ng·h/mL] | Cmax [3] [ng/mL] | Cmax [4] [ng/mL] | Ki (Adenosine deaminase) [µM]
OC[C@H]1O[C@@H](n2cnc3c2NC=NC[C@H]3O)C[C@@H]1O [PENTOSTATIN] | – | 9500 | 12200 | – | –
OCc1cn(C(CO)c2ccccc2)cn1 (stereo not given) | – | – | – | – | > 100
CCCCCC[C@@H]([C@@H](C)O)n1cnc2c(N)ncnc21 [EHNA] | 1000 | 2200 | 5900 | 1100 | 0.0037
